Measured values reported in PMC6965684, “Characterization of binding, functional activity, and contractile responses of the selective 5‐HT1F receptor agonist lasmiditan” (British Journal of Pharmacology, 2019).
Where a name gives a salt, the structure may show the parent alone. Read-outs that look alike come from different tables or passages of the source.

Tests used:
5-HT2A receptor [1] = biological target: T1, 5-HT2A receptor (Homo sapiens, UniProt P28223); assay: cell-based; set-up: species or system CHO-K1; IPOne HTRF agonist assay, IP1 accumulation in adherent transfected cells
T1 construct: gene HTR2A; full-length human recombinant receptor in CHO-K1 cells (Ogeda); crude membranes
T1 sequence (P28223 whole entry): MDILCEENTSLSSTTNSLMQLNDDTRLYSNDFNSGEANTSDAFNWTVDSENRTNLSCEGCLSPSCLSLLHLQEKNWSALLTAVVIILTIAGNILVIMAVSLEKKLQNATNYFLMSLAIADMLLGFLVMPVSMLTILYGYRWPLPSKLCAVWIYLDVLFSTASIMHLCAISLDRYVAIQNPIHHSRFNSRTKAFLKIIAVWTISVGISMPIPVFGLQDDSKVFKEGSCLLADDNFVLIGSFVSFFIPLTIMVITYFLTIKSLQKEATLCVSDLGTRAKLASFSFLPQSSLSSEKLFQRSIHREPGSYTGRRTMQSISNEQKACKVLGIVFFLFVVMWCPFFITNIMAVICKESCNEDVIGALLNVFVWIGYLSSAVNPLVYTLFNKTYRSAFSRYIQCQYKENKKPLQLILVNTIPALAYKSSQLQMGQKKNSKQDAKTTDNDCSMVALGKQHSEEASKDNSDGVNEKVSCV
Protocol: The assay was performed on adherent cells. For agonist testing, the medium was removed and 20 μl of assay buffer plus 20 μl of the studied agonist or the reference agonist were added in each well. The plate was incubated for 60 min at 37°C with 5% CO2. IP1‐D2 reagent and anti‐IP1 cryptate reagents were dispensed in the wells, and IP1 concentrations were then measured following the manufacturer instructions (IPOne HTRF assay kit; Cisbio International, Codolet, France). In brief, increasing concentrations of agonists were added to stably transfected cells in buffer in an Optiplate (PerkinElmer Life Sciences). The plates were incubated, and cells were then lysed by the addition of HTRF reagents (IP1‐D2 reagent and anti‐IP1 cryptate reagents) and diluted in lysis buffer, followed by incubation at room temperature. […] Additionally, the reference values obtained were compared to historical values obtained from the same receptor and used to validate the experimental session. […] For the new assays developed in this study (i.e., 5‐ht1E receptor), the two independent pIC50 determined must be concordant with a 1 log unit interval for the assays to be validated. […]

5-HT1A receptor [2] = biological target: T2, 5-HT1A receptor (Homo sapiens, UniProt P08908); assay: biochemical; type: CHO-K1 membranes; set-up: radioligand competition binding on cell membranes, filtration and TopCount scintillation counting; conditions: radioligand displacement; read-out: 5‐HT1A / pIC50 (converted)
T2 construct: gene HTR1A; full-length human recombinant receptor in CHO-K1 cells (Ogeda); crude membranes
T2 sequence (P08908 1-422): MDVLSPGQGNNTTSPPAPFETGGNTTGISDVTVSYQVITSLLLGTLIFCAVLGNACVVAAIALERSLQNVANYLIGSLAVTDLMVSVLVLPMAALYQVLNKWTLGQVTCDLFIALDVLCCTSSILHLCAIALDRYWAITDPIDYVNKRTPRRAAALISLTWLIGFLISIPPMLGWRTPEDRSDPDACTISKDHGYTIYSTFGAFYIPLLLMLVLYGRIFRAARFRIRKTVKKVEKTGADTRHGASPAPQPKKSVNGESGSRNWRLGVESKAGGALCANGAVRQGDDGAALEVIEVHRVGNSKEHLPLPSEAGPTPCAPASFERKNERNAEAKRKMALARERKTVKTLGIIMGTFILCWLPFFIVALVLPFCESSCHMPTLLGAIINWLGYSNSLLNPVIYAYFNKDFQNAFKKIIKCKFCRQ
Protocol: (§1) Competition binding was performed in duplicate in the wells of a 96‐well plate containing binding buffer (optimized for each receptor), cell membrane extracts (approximately 20,000 cells distributed in the 96‐well plate), radiotracer, and test agonist. Non‐specific binding was determined by co‐incubation with 200‐fold excess of competitor. Cells were incubated and exposed to varying concentrations (1 pM to 10 μM) of a range of displacer agonists (see below). The samples were incubated in a final volume of 0.1 ml and then filtered over Unifilter plates (Perkin Elmer, Massachusetts, USA) pretreated for 2 hr to limit tracer non‐specific binding. Filters were washed five times with 0.5 ml of ice‐cold washing buffer (tris 50 mM pH 7.4) and 50 μl of Microscint 20 (Perkin Elmer) were added to each filter. The plates were incubated 15 min at room temperature on an orbital shaker and then counted with a TopCount™ (Perkin Elmer) for 1 min per well. […] Additionally, the reference values obtained were compared to historical values obtained from the same receptor and used to validate the experimental session. […] For the new assays developed in this study (i.e., 5‐ht1E receptor), the two independent pIC50 determined must be concordant with a 1 log unit interval for the assays to be validated.

5-HT1A receptor [3] = biological target: T2, 5-HT1A receptor; assay: cell-based; set-up: species or system CHO-K1; cAMP HTRF agonist assay, Gi coupled receptors, inhibition of stimulated cAMP; conditions: cAMP
Protocol: Concentration–response curves were performed in parallel with the agonists. […] After addition of the lysis buffer and 1‐hr incubation, cAMP concentrations were estimated according to the manufacturer specification with the HTRF kit (Cisbio International, Codelet, France). In brief, increasing concentrations of agonists were added to stably transfected cells in buffer in an Optiplate (PerkinElmer Life Sciences, Massachusetts, USA). The plates were incubated, and cells were then lysed by the addition of HTRF reagents (cAMP‐Cryptate and anti‐cAMP‐d2 reagents) and diluted in lysis buffer, followed by incubation at room temperature. […] Additionally, the reference values obtained were compared to historical values obtained from the same receptor and used to validate the experimental session. […] For the new assays developed in this study (i.e., 5‐ht1E receptor), the two independent pIC50 determined must be concordant with a 1 log unit interval for the assays to be validated.

5-HT2A receptor [4] = biological target: T1, 5-HT2A receptor; assay: biochemical; type: CHO-K1 membranes; set-up: radioligand competition binding on cell membranes, filtration and TopCount scintillation counting; conditions: for Ki: read-out: 5‐HT2A / pKi (converted)
Protocol: as §1, with “validated. […]” for “validated.”

5-HT1A receptor [5] = biological target: T2, 5-HT1A receptor; assay: biochemical; type: CHO-K1 membranes; set-up: GTPγS agonist functional assay; conditions: GTPγS
Description: Additionally, the reference values obtained were compared to historical values obtained from the same receptor and used to validate the experimental session. […] For the new assays developed in this study (i.e., 5‐ht1E receptor), the two independent pIC50 determined must be concordant with a 1 log unit interval for the assays to be validated.

[6] = IP, read-out: 5‐HT2A / IP (converted)
[7] = radioligand displacement, read-out: 5‐HT2A / pIC50 (converted)

SMILES	EC50 (5-HT2A receptor [1]; [6]) [µM]	IC50 (5-HT1A receptor [2]) [µM]	EC50 (5-HT1A receptor [3]) [µM]	IC50 (5-HT2A receptor [4]; [7]) [µM]	EC50 (5-HT1A receptor [5]) [µM]	Ki (5-HT2A receptor [4]; radioligand displacement) [µM]	EC50 (5-HT2A receptor [1]) [µM]	IC50 (5-HT2A receptor [4]) [µM]
CN1CCC[C@@H]1Cc1c[nH]c2ccc(CCS(=O)(=O)c3ccccc3)cc12 [Eletriptan hydrobromide]	0.851	0.00631	1.82	3.8	0.417			
N#Cc1ccc(N2CCN(C(=O)COc3ccc4[nH]cc(CCN)c4c3)CC2)cc1 [Donitriptan hydrochloride]	0.00794	0.038	1.15	1.48	0.182			
CNS(=O)(=O)CCc1ccc2[nH]cc(C3CCN(C)CC3)c2c1 [Naratriptan hydrochloride]	> 10	0.049	> 10	> 10	0.302	> 10		
CN(C)[C@@H]1CCc2[nH]c3ccc(NC(=O)c4ccc(F)cc4)cc3c2C1 [LY344864 hydrochloride]		0.759	> 10		> 10		> 10	7.76
CNS(=O)(=O)Cc1ccc2[nH]cc(CCCN3CCN(c4ncncc4OC)CC3)c2c1 [Avitriptan fumarate]	0.123	0.0631	> 10	7.76	0.646			
CNC1CCc2[nH]c3ccc(C(N)=O)cc3c2C1 (racemic) [Frovatriptan racemate]	> 10	0.148	> 10	> 10	0.759	> 10		
